In brackets after ≈: the same amount, converted by molar mass. Activity calls are given as the source filed them. No cut-off for these calls is given here.
Tests used:
Aspergillus fumigatus [1] = assay: Antifungal activity against Aspergillus fumigatus ATCC 16424 after 48 hrs by broth dilution method; assay type: functional; conditions: ATCC 16424, 48 h
Candida albicans [2] = assay: Antifungal activity against Candida albicans ATCC 10231 at 128-0.01 ug/ml spectroscopy analysis; assay type: functional, organism-based
Cryptococcus neoformans [3] = assay: Antifungal activity against Cryptococcus neoformans ATCC 36556 after 48 hrs by broth dilution method; assay type: functional; conditions: ATCC 36556, 48 h
Candida albicans [4] = assay: Antifungal activity against Candida albicans ATCC 10231 after 48 hrs by broth dilution method; assay type: functional; conditions: ATCC 10231, 48 h
Nakaseomyces glabratus [5] = assay: Antifungal activity against Candida glabrata ATCC 48435 after 48 hrs by broth dilution method; assay type: functional; conditions: ATCC 48435, 48 h
Aspergillus fumigatus [6] = assay: Antifungal activity against Aspergillus fumigatus ATCC 16424 at 128-0.01 ug/ml by spectroscopy analysis; assay type: functional, organism-based
Nakaseomyces glabratus [7] = assay: Antifungal activity against Candida glabrata ATCC 48435 at 128-0.01ug/ml spectroscopy analysis; assay type: functional, organism-based
Cryptococcus neoformans [8] = assay: Antifungal activity against Cryptococcus neoformans ATCC 36556 at128-0.01 ug/ml spectroscopy analysis; assay type: functional, organism-based

Compound	growth inhibition (GI) (Candida albicans [2])	MIC (Cryptococcus neoformans [3])	MIC (Aspergillus fumigatus [1]; read-out: MIC)	growth inhibition (GI) (Aspergillus fumigatus [6])	other results
CC(=O)O[C@@H]1C[C@@]2(C)[C@@H](CC[C@@H]3[C@@H]2CC[C@]2(C)[C@@H]([C@H](C)CCCC(C)C)CC[C@@H]32)CC1=O	Active				MIC (Aspergillus fumigatus [1]): 128 µg/mL (≈ 288 µM)
CC(=O)O[C@@H]1C[C@@]2(C)[C@@H](CC[C@@H]3[C@@H]2CC[C@]2(C)[C@@H]([C@H](C)CCCC(C)C)CC[C@@H]32)C[C@H]1O		4 µg/mL (≈ 8.95 µM)			
CC(=O)O[C@@H]1C[C@@]2(C)[C@@H](CC[C@H]3[C@@H]4CCC[C@@]4(C)CC[C@@H]32)CC1=O			1 µg/mL (≈ 3.01 µM)		MIC (Candida albicans [4]): 0.125 µg/mL (≈ 0.376 µM)
CC(C)CCC[C@@H](C)[C@H]1CC[C@H]2[C@@H]3CC[C@H]4C[C@@H](OC(=O)CCC(=O)O)[C@H](OC(=O)CCC(=O)O)C[C@]4(C)[C@H]3CC[C@]12C			8 µg/mL (≈ 13.2 µM)	Active	MIC (Nakaseomyces glabratus [5]): 32 µg/mL (≈ 52.9 µM)
CC(=O)O[C@]12C[C@@H]3CC[C@@H]4[C@H](CC[C@]5(C)[C@@H]([C@H](C)CCCC(C)C)CC[C@@H]45)[C@@]3(C)C[C@H]1O2					MIC (Aspergillus fumigatus [1]): 8 µg/mL (≈ 18 µM)
CC(=O)O[C@]12C[C@@H]3CC[C@H]4[C@@H]5CCC[C@@]5(C)CC[C@@H]4[C@@]3(C)C[C@H]1O2					MIC (Candida albicans [4]): 4 µg/mL (≈ 12 µM)
C[C@@]12CCC[C@H]1[C@@H]1CC[C@H]3C[C@@H](O)CC[C@]3(C)[C@H]1CC2	Active			Active	growth inhibition (GI) (Nakaseomyces glabratus [7]): Active; growth inhibition (GI) (Cryptococcus neoformans [8]): Active
CC(C)CCC[C@@H](C)[C@H]1CC[C@H]2[C@@H]3CC[C@H]4C[C@@H](O)CC[C@]4(C)[C@H]3CC[C@]12C	Active			Active	growth inhibition (GI) (Nakaseomyces glabratus [7]): Active; growth inhibition (GI) (Cryptococcus neoformans [8]): Active
CC(=O)O[C@@H]1C[C@@]2(C)[C@@H](CC[C@@H]3[C@@H]2CC[C@]2(C)[C@@H]([C@H](C)CCCC(C)C)CC[C@@H]32)C[C@H]1OC(=O)CCC(=O)O		8 µg/mL (≈ 14.6 µM)	2 µg/mL (≈ 3.66 µM)		
CC(C)CCC[C@@H](C)[C@H]1CC[C@H]2[C@@H]3CC[C@H]4C[C@@H](O)[C@H](O)C[C@]4(C)[C@H]3CC[C@]12C		32 µg/mL (≈ 79.1 µM)			

Reference: ChEMBL document CHEMBL1287729, “Novel and efficient synthesis and antifungal evaluation of 2,3-functionalized cholestane and androstane derivatives” (2010)
